US20230138225A1, “PYRAZOLE CARBOXYLATE ESTER COMPOUND AND USE THEREOF” (SHENYANG SINOCHEM AGROCHEMICALS R&D CO., LTD., priority 2020, published 2023)

Legend:
Experiment in all cases: Herbicidal activity, post-emergence stem and leaf spray in greenhouse
Format in all cases: in vivo
Conditions in all cases: Post-emergence treatment
[1] = tested on: Abutilon theophrasti Medic.
From the text: (§1) Seeds of broadleaf weeds (Zinnia elegans Jacq. and Abutilon theophrasti Medic.) or grass weeds (Setaria glauca (L.) Beauv. and Echinochloa crusgalli (L.) Beauv.) were respectively sown in a paper cup having a diameter of 7 cm and containing nutrient soil. After sowing, the seeds were covered with 1 cm of soil, the soil was pressed and watered, and then the seeds were cultivated in a greenhouse according to a conventional method, and stems and leaves were sprayed after 2-3 leaf stage of the weeds.
(§2) The compounds of the present invention were dissolved in acetone, and then diluted with 0.1% aqueous solution of Tween 80 to form the test liquid. According to the design dose of the test, spray treatment was carried out by track sprayer (Engineer Research Ltd., pressure 1.95 kg/cm^2, volume 500 L/hm^2, track speed 1.48 km/h). The test was repeated for three times. The test material was treated and then placed in an operation hall. The medicinal liquid was naturally dried in the shade, and then was placed in a greenhouse and managed according to the conventional method. The response of the weeds to the drug was visually observed and recorded. After treatment, the state of growth of the respective weeds were visually observed regularly to determine the growth inhibition rate (%) in accordance with the following evaluation standard.
(§3) Growth inhibition rate (%): 0=no discernible action: 100=all weeds dead or not emerged.

[2] = tested on: Setaria glauca (L.) Beauv.
From the text: as §1, §2, §3

Zinnia elegans Jacq. = tested on: Zinnia elegans Jacq.
From the text: as §1, §2, §3

[3] = dose 37.5 g a.i./hm^2, Table 3 parallel test
[4] = dose 75 g a.i./hm^2, Table 3 parallel test

Row | SMILES | growth inhibition rate % [1, 3] | growth inhibition rate % [1, 4] | growth inhibition rate % [2, 3] | growth inhibition rate % [2, 4] | growth inhibition rate % (Zinnia elegans Jacq.; [3]) | growth inhibition rate % (Zinnia elegans Jacq.; [4]) | growth inhibition rate % ([2]; dose 37.5 g a.i./hm^2, Table 2) | growth inhibition rate % ([2]; dose 150 g a.i./hm^2, Table 2) | growth inhibition rate % ([2]; dose 600 g a.i./hm^2, Table 2)
1 | CCn1ncc(C(=O)c2ccc(S(C)(=O)=O)c(COCC(F)(F)F)c2Cl)c1OC(=O)c1cn(C)nc1C [KC3, fenpyrazone, reference compound] | 30% | 95% | 60% | 70% | 40% | 50% | – | – | –
2 | CCn1nc(C(=O)Oc2c(C(=O)c3ccc(S(C)(=O)=O)c(OCCOC)c3C)c(C)nn2C(C)C)cc1C [Compound 1-34] | – | – | – | – | – | – | 65% | 100% | 100%
3 | CCn1nc(C(=O)Oc2c(C(=O)c3ccc(S(C)(=O)=O)c(OCCOC)c3C)cnn2CC)cc1C [Compound 1-32] | 100% | 100% | 90% | 100% | 100% | 100% | 90% | 100% | 100%
4 | CCn1nc(C)cc1C(=O)Oc1c(C(=O)c2ccc(S(C)(=O)=O)c(OCCOC)c2C)c(C)nn1C [Compound 1-140] | – | – | – | – | – | – | 80% | 100% | 100%
5 | CCn1nc(C(=O)Oc2c(C(=O)c3ccc(S(C)(=O)=O)c(OCCOC)c3C)c(C)nn2C)cc1C [Compound 1-33] | – | – | – | – | – | – | 70% | 100% | 100%
6 | CCOCCOc1c(S(C)(=O)=O)ccc(C(=O)c2c(C)nn(C)c2OC(=O)c2cc(C)n(CC)n2)c1C [Compound 1-44] | – | – | – | – | – | – | 70% | 100% | 100%
7 | CCn1nc(C)cc1C(=O)Oc1c(C(=O)c2ccc(S(C)(=O)=O)c(OCCOC)c2C)cnn1CC [Compound 1-139] | – | – | – | – | – | – | 80% | 100% | 100%
8 | CCc1nn(C)c(OC(=O)c2cc(C)n(CC)n2)c1C(=O)c1ccc(S(C)(=O)=O)c(OCCOC)c1C [Compound 1-36] | – | – | – | – | – | – | 70% | 100% | 100%
9 | CCn1nc(C(=O)Oc2c(C(=O)c3ccc(S(C)(=O)=O)c(OCCOC)c3C)c(C)nn2CC)cc1C [Compound 1-37] | – | – | – | – | – | – | 100% | 100% | 100%
10 | CCn1nc(C(=O)Oc2c(C(=O)c3ccc(S(C)(=O)=O)c(OCC4CC4)c3C)c(C)nn2C)cc1C [Compound 1-20] | – | – | – | – | – | – | 65% | 100% | 100%
11 | C=CCOc1c(S(C)(=O)=O)ccc(C(=O)c2c(C)nn(C)c2OC(=O)c2cc(C)n(CC)n2)c1C [Compound 1-26] | – | – | – | – | – | – | 75% | 100% | 100%
